Experimental data from US10093653B2, “Vitamin D receptor-coregulator inhibitors” (UWM Research Foundation, Inc., priority 2011, dated 2018).
Values after ≈ are worked out from the molar mass of the structure shown.

Columns and labels:
[1] = tested on: VDR in SKOV-3 cells; assay: VDR expression, western blotting of whole cell lysate; type: cell-based; conditions: SKOV-3, 24 hours; 31b 25 and 50 uM, 32b 50 uM
Description: Expression of VDR was analyzed by western blotting of whole cell lysate using monoclonal antibody against VDR (Neomarker, Calif. cat no-RT-200PO).

[2] = PAMPA
[3] = tested on: DU145 cells; assay: Cytotoxicity seen in TRPV6 expression study; type: cell-based; conditions: concentrations higher than 20 μM
[4] = target: T1, VDR-SRC2-1 (Homo sapiens, UniProt P11473, DEL165-215); assay: VDR-coregulator binding FP, Texas Red-labeled peptide; conditions: 3 h
T1 construct: made in house
T1 sequence (P11473 with tags, fused parts or gaps DEL165-215 limits assumed): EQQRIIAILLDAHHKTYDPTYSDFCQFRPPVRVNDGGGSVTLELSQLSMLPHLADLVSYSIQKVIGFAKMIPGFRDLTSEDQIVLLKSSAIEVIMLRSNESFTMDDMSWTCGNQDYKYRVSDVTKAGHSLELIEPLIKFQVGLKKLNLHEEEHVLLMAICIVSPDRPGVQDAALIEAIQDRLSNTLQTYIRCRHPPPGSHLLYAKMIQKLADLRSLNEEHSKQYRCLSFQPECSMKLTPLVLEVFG

[5] = tested on: SKOV-3 cells; assay: Cell cycle analysis by FACS; type: cell-based; conditions: SKOV-3, 24 hours
Description: Inducing cell cycle arrest or targeting cell-cycle regulators by small molecule modulators has shown promising outcomes in animal models.

[6] = tested on: SKOV-3 cells; assay: Mitochondrial transmembrane depolarization potential; type: cell-based
[7] = tested on: ECC-1; assay: Cytotoxicity, MTS assay; type: cell-based; conditions: ECC-1 endometrial cancer cell-line, within 48 hours
[8] = tested on: CYP24A1; assay: CYP24A1 expression levels; type: cell-based; conditions: compound and calcitriol
[9] = target: T2, VDR-SRC2 interaction (Homo sapiens, UniProt P11473, DEL165-215); assay: Pull down assay, VDR and SRC2 bearing all three NIDs
T2 sequence (P11473 with tags, fused parts or gaps DEL165-215 limits assumed): T1 sequence (P11473 with tags, fused parts or gaps DEL165-215 limits assumed)

[10] = target: T3, VDR-LBD / SRC2-3 peptide (Homo sapiens, UniProt P11473, DEL165-215); assay: Identification of reaction partner, pre-incubation FP; type: binding; conditions: FP after 5 minutes
T3 construct: made in house
T3 sequence (P11473 with tags, fused parts or gaps DEL165-215 limits assumed): T1 sequence (P11473 with tags, fused parts or gaps DEL165-215 limits assumed)

[11] = target: T4, VDR-Hr1 (Homo sapiens, UniProt P11473, DEL165-215); assay: VDR-coregulator binding FP, Texas Red-labeled peptide; conditions: 3 h
T4 construct: made in house
T4 sequence (P11473 with tags, fused parts or gaps DEL165-215 limits assumed): T1 sequence (P11473 with tags, fused parts or gaps DEL165-215 limits assumed)

[12] = tested on: SKOV-3; assay: Cytotoxicity, MTS assay; type: cell-based; conditions: SKOV-3, within 48 hours
[13] = tested on: SKOV-3 cells; assay: Western blots for phospho-p38 MAPkinase and phospho SAPK/JNK; type: cell-based; conditions: SKOV-3, 25 uM, within 24 hours
Description: (§1) Vitamin-d/VDR signaling protects the cancer cells from reactive oxygen species (ROS) induced cellular damages.

[14] = tested on: SKOV-3 cells; assay: Reactive oxygen species levels; type: cell-based; conditions: SKOV-3, within 24 hours
Description: as §1

[15] = tested on: SKOV-3 cells; assay: Western blots for cleaved PARP-1 and cleaved caspase-3; type: cell-based; conditions: SKOV-3, within 24 hours
[16] = tested on: OVCAR-8; assay: Cytotoxicity, MTS assay; type: cell-based; conditions: OVCAR-8, within 48 hours
[17] = tested on: TRPV6 in DU145 cells; assay: TRPV6 expression, semi-quantitative RT-PCR; type: cell-based
[18] = 12 h, pH 7.4
[19] = in vitro; conditions: PAMPA
[20] = physchem; conditions: pH 7.4, aqueous buffer, kinetic from dmso stock
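Wherever Papp is given: passive permeability measured by parallel artificial membrane permeability assay, each experiment run in triplicate.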
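Wherever Permeability Log(Pe) is given: passive permeability measured by parallel artificial membrane permeability assay, each experiment run in triplicate.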

Cc1[nH]c2ccccc2c1C(Nc1ccc(Cl)cc1)c1ccccc1Cl (stereo not shown) [Compound 31b, 4-chloro-N-((2-chlorophenyl)(2-methyl-1H-indol-3-yl)methyl)aniline]
Expression of VDR [1]: downregulation of VDR | Permeability Log(Pe) [2]: −6.24 cm/s | Cytotoxicity in DU145 cells [3]: increased cytotoxicity | Inhibition of VDR-SRC2-1 binding [4]: no inhibition | Apoptotic (subG1/G0) population [5]: increase | Population in G1 and G2/M phase [5]: reduced | S-phase arrest of cycling cells [5]: restricted the progression of cycling cells in S-phase significantly | Mitochondrial transmembrane depolarization potential (ΔΨm) [6]: induced activation of mitochondrial transmembrane depolarization potential | Cytotoxicity, cell viability [7]: potent cytotoxicity | CYP24A1 induction with calcitriol, in comparison to calcitriol treatment [8]: significant increase in CYP24A1 induction | Inhibition of VDR-SRC2 interaction in pull down assay ([9]; 50 μM and 100 μM, residual interaction still detected): significant inhibition | VDR-SRC2 interaction after pre-incubation of SRC2 with compound ([9]; beads washed, then treated with VDR): VDR-SRC2 interactions could be verified | Inhibition of VDR-SRC2 interaction in pull down assay ([9]; different concentrations, with 1,25(OH)2D3): blocked in a dose dependent manner | FP signal after pre-incubation with SRC2-3 for 3 hours, then addition of VDR-LBD and LG190178 [10]: did not change | FP signal after pre-incubation with VDR-LBD and LG190178 for 3 hours, then addition of SRC2-3 [10]: did result in a change of FP signal | Inhibition of VDR-Hr1 binding [11]: no inhibition | Cytotoxicity, cell viability [12]: potent cytotoxicity | Activation of SAPK/JNK [13]: strong/sustained activation of SAPK/JNK | Activation of p38 MAPkinase [13]: activation of p38 MAPkinase | Reactive oxygen species level compared to vehicle [14]: elevated level of reactive production | Activation of caspase-3 [15]: activation of caspase-3 | Cleavage of PARP-1 [15]: significant cleavage of PARP-1 | Cytotoxicity, cell viability [16]: potent cytotoxicity | TRPV6 transcription in the presence of 1,25-(OH)2D3 ([17]; 20 nM 1,25-(OH)2D3, different concentrations): reduced in a dose dependent manner | TRPV6 regulation, single treatment ([17]; 20 μM, without 1,25-(OH)2D3): no regulation of TRPV6 | Solubility [18]: 68.0 µM (≈ 25.9 µg/mL)

Cc1[nH]c2ccccc2c1C(Nc1ccccc1)c1ccc(OCCCO)cc1 (stereo not shown) [Compound 30i, 3-(4-((2-methyl-1H-indol-3-yl)(phenylamino)methyl)phenoxy)propan-1-ol]
Papp [19]: 0.148 ×10⁻⁶ cm/s | solubility at 12 h [20]: 503 µM (≈ 195 µg/mL)
